Assay results as given in ChEMBL document CHEMBL1127968, “Examination of peptidic ,-diamino-,-difluoroketones as inhibitors of human leukocyte elastase” (Bioorg Med Chem Lett, 1994).
pIC50, pKi: −log10 of the molar value.

Target: T1, Neutrophil elastase (Homo sapiens, UniProt P08246)
T1 sequence (P08246 whole entry): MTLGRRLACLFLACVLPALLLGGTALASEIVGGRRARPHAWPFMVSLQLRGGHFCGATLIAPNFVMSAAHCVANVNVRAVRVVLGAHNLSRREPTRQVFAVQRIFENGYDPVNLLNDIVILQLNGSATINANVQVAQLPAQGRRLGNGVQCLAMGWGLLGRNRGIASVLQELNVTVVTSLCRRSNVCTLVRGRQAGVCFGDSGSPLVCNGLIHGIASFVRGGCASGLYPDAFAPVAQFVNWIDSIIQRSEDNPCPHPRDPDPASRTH
Assay: In vitro inhibitory activity against human leukocyte elastase was determined

Row | SMILES | pKi | pIC50
1 | COc1ccc(C(=O)N[C@H](C(=O)N2CCC[C@H]2C(=O)N[C@H](C(=O)C(F)(F)CNC(=O)OC(C)(C)C)C(C)C)C(C)C)cc1 | 8.47 | 
2 | CC(C)[C@H](NC(=O)Oc1ccccc1)C(=O)N1CCC[C@H]1C(=O)N[C@H](C(=O)C(F)(F)CNCc1ccccc1)C(C)C | 8.39 | 
3 | CC(C)[C@H](NC(=O)Oc1ccccc1)C(=O)N1CCC[C@H]1C(=O)N[C@H](C(=O)C(F)(F)CNC(=O)OC(C)(C)C)C(C)C | 9.41 | 
4 | COc1ccc(C(=O)N[C@H](C(=O)N2CCC[C@H]2C(=O)N[C@H](C(=O)C(F)(F)CN)C(C)C)C(C)C)cc1 | 7.82 | 
5 | CNC(=O)C(F)(F)C(=O)[C@@H](NC(=O)[C@@H]1CCCN1C(=O)[C@@H](NC(=O)c1ccc(OC)cc1)C(C)C)C(C)C | 8.47 | 
6 | COc1ccc(C(=O)N[C@H](C(=O)N2CCC[C@H]2C(=O)N[C@H](C(=O)C(F)(F)CNCc2ccccc2)C(C)C)C(C)C)cc1 | 9.46 | 
7 | CC(C)[C@H](NC(=O)Oc1ccccc1)C(=O)N1CCC[C@H]1C(=O)N[C@H](C(=O)C(F)(F)CN)C(C)C | 9.09 | 
8 | CC(C)CC(=O)NCC(F)(F)C(=O)C(CC1CCCCC1)NC(=O)[C@@H](NC(=O)[C@H](Cc1ccccc1)NC(=O)OC(C)(C)C)C(C)C (stereo partly specified) |  | 8.46
9 | COc1ccc(C(=O)N[C@H](C(=O)N2CCC[C@H]2C(=O)N[C@H](C(=O)C(F)(F)C(N)=O)C(C)C)C(C)C)cc1 | 9.19 | 
10 | CC(C)[C@H](NC(=O)OCc1ccccc1)C(=O)N1CCC[C@H]1C(=O)N[C@H](C(=O)C(F)(F)CNCc1ccccc1)C(C)C | 8.80 | 

The remaining lines, values ahead:

Row | pKi | pIC50 | SMILES
11 | 9.42 |  | CC(C)[C@H](NC(=O)OCc1ccccc1)C(=O)N1CCC[C@H]1C(=O)N[C@H](C(=O)C(F)(F)C(N)=O)C(C)C
12 | 9.07 |  | CNC(=O)C(F)(F)C(=O)[C@@H](NC(=O)[C@@H]1CCCN1C(=O)[C@@H](NC(=O)Oc1ccccc1)C(C)C)C(C)C
13 | 6.89 |  | CC(C)[C@H](NC(=O)OCc1ccccc1)C(=O)N1CCC[C@H]1C(=O)N[C@H](C(=O)C(F)(F)CN)C(C)C
14 | 8.96 |  | CC(C)[C@H](NC(=O)OCc1ccccc1)C(=O)N1CCC[C@H]1C(=O)N[C@H](C(=O)C(F)(F)CNC(=O)OC(C)(C)C)C(C)C
15 | 8.52 |  | CNC(=O)C(F)(F)C(=O)[C@@H](NC(=O)[C@@H]1CCCN1C(=O)[C@@H](NC(=O)OCc1ccccc1)C(C)C)C(C)C
16 | 8.64 |  | CC(C)[C@H](NC(=O)Oc1ccccc1)C(=O)N1CCC[C@H]1C(=O)N[C@H](C(=O)C(F)(F)F)C(C)C
